Test results taken from patent publication US20090156551A1, “NOVEL COMPOSITION” (priority 2007, published 2009).
pIC50: −log10 of the molar value. Where two headings read alike, the source gives them in different places.

How the values were obtained:
Collagen I = test: Gene expression in normal human chondrocytes, RT-PCR; format: cell-based; conditions: for Expression level (%) Collagen I: at 12.5 μmol/L, 4 hours, % of unstimulated cells (100%)
SOX-6 = test: as above; format: cell-based; conditions: at 12.5 μmol/L, 4 hours; % of unstimulated cells (100%)
[1] = test system: Inflammatory mediator PGE2; test: Inhibition of PGE2 synthesis in LPS-stimulated RAW264.7 macrophages (EIA); format: cell-based, murine; conditions: Mus musculus, read-out: IC50 Observed, inflammatory mediator PGE2
Procedure: The anti-inflammatory effects were determined in cellular assays by measuring the inhibition of the synthesis of nitric oxide and/or pro-inflammatory prostaglandins (PGE2). […] The cells were purchased from ATCC (Manassas, Va., USA) and cultured in DMEM containing streptomycin/penicillin, non-essential amino acids and 10% fetal calf serum (FCS). […] Cells were then starved in complete medium containing 0.25% FCS (D-025). After overnight culture, medium was removed and replaced by 100 μL of D-025 containing the test compounds at twice the final concentration. Subsequently, 100 μL of D-025 containing 2 μg/ml LPS was added (i.e. final LPS concentration of 1 μg/ml) and the cells cultured for 24 hours. […] Concentrations of nitrite which was rapidly formed from nitric oxide released by cells were determined by the Griess reaction using sodium nitrite as standard. Briefly, 50 μl of supernatant was mixed with Griess reagent 1 (25 μL) and Griess reagent 2 (25 μL), centrifuged and the optical density at 540 nm determined. PGE2 secreted into the cell culture medium was determined by EIA obtained from Cayman Chemicals (Ann Harbor, Wis., USA) and used according to the manufacturer's instructions. […] IC50 values for LPS-stimulated cells were calculated using a two-parametric least-square fitting equation [y=A+((B−A)/(1+((C−x)̂D))] for best-fit curves (Excel fit software program).

IL-RI Receptor for Il-1 = test: Gene expression in normal human chondrocytes, RT-PCR; format: cell-based; conditions: at 12.5 μmol/L, 4 hours; control set at 100%
Inflammatory mediator NO = test: Inhibition of nitric oxide synthesis in LPS-stimulated RAW264.7 macrophages (Griess reaction); format: cell-based, murine; conditions: for pIC50: Mus musculus; for anti-inflammatory activity (in words): NO inhibition
Procedure: The anti-inflammatory effects were determined in cellular assays by measuring the inhibition of the synthesis of nitric oxide and/or pro-inflammatory prostaglandins (PGE2). PGE2 plays a critical role in the inflammation process, while nitric oxide (NO) is a hallmark of inflammation in various chronic inflammatory diseases including various forms of arthritis, gastro-intestinal diseases and metabolic syndrome X. The effects on the inflammatory response were tested in cellular assays using a murine macrophage cell line, RAW264.7. The cells were purchased from ATCC (Manassas, Va., USA) and cultured in DMEM containing streptomycin/penicillin, non-essential amino acids and 10% fetal calf serum (FCS). In order to test a large range of concentration of MA and HO as well as mixtures thereof, cells (˜50'000/well) were seeded into flat-bottomed microtiter plates and cultured for one day. Cells were then starved in complete medium containing 0.25% FCS (D-025). After overnight culture, medium was removed and replaced by 100 μL of D-025 containing the test compounds at twice the final concentration. Subsequently, 100 μL of D-025 containing 2 μg/ml LPS was added (i.e. final LPS concentration of 1 μg/ml) and the cells cultured for 24 hours. Substances were usually tested in a concentration range from 0.2 to 50 μM in two-fold dilution steps. All treatments were done in duplicates and several experimental series were done for each treatment. Concentrations of nitrite which was rapidly formed from nitric oxide released by cells were determined by the Griess reaction using sodium nitrite as standard. Briefly, 50 μl of supernatant was mixed with Griess reagent 1 (25 μL) and Griess reagent 2 (25 μL), centrifuged and the optical density at 540 nm determined. PGE2 secreted into the cell culture medium was determined by EIA obtained from Cayman Chemicals (Ann Harbor, Wis., USA) and used according to the manufacturer's instructions. All determinations were done in duplicates and at various dilutions of the culture supernatant. IC50 values for LPS-stimulated cells were calculated using a […] least-square fitting equation [y=A+((B−A)/(1+((C−x)̂D))] for best-fit curves (Excel fit software program).
In order to determine the synergistic concentration range of MA to HO, various mixtures thereof were tested for their anti-inflammatory by measuring the inhibition of the synthesis of nitric oxide (NO) as outlined above.
The synergistic effect of a combination of a mixture of MA/HO (1:3 w/w) with glucosamine sulfate (ratio MA/HO (1:3 w/w) to glucosamine sulfate: 50 μmol/L to 50 μmol/L) or chondroitin sulfate (ratio MA/HO (1:3 w/w) to chondroitin sulfate: 13.3 mg/L (i.e. 50 μmol/L) to 500 mg/L) on the inhibition of the inflammatory mediator nitric oxide (NO) has been evaluated based on the method published by Chou and Talalay (A simple generalized equation for the analysis of multiple inhibitions of Michealis-Menten kinetic systems. J. Biol. Chem. 1977. 252: 6438-6442).

TIMP-1 = test: Gene expression in normal human chondrocytes, RT-PCR; format: cell-based; conditions: for Expression level (%) TIMP-1: at 12.5 μmol/L, 4 hours, % of unstimulated cells (100%)
Procedure: [Worded in the source for another target; this target is reported under the same test.] (§1) The effect of MA and HO, mixtures thereof as well as combinations with glucosamine sulfate and chondroitin sulfate on the expression of human aggrecan, collagen I, collagen II, or chondrocyte transcription factors (SOX-6, -9) was measured in vitro in normal human chondrocytes (derived from knee) (CC-2550; Cambrex, respectively). A control experiment without the compounds was done concomitantly to compare the expression of these genes (percentage expression of gene in controls was set to 100%).

SOX-9 = test: as above; format: cell-based; conditions: for Expression level (%) SOX-9: at 12.5 μmol/L, 4 hours, % of unstimulated cells (100%)
Procedure: as §1

[2] = test system: normal human chondrocytes; test: Effects on chondrocytes (cartilage build-up), overall gene expression; format: cell-based; conditions: 12.5 μmol/L, un- (non-IL1 beta-) stimulated cells
Procedure: as §1
In table 2.1 the effect of MA and HO alone as well as of mixtures thereof in the indicated molar ratios on the expression of genes that are involved in cartilage build-up is shown.

IL-10 = test: Inflammatory gene expression in RAW 264.7 cells, quantitative RT-PCR; format: cell-based, murine; conditions: at 12.5 μmol/L, 4 hours; relative to LPS-stimulated cells (100%)
Source text: (§2) Inflammatory responses are orchestrated by the transient activation of a variety of genes. Their regulation is tightly controlled via signaling pathways and eventually proteins that control the expression of genes such as transcription factors. Consequently, the effect of the compounds (each of them and various ratios of mixtures) has also been evaluated at the level of the expression of genes that are involved in the inflammatory response. These comprise genes of the prostaglandin synthesis pathway (e.g. COX-2), interleukins (e.g. IL1-α, IL-1β, IL-6), cytokines (e.g. TNF-α), inducible nitric oxide synthase (iNOS) and chemokines. RAW 264.7 cells were stimulated in the presence of different concentrations of substances. After 4 hours, RNA was extracted and the expression of genes determined by quantitative RT-PCR as described by Richard, […]. and […]. in Mol Nutr Food Res 2005. 49: 431-442. In table 3, the effect of MA and HO alone as well as of mixtures thereof in the indicated molar ratios on the expression of inflammatory genes or on anti-inflammatory transcription factors (I-κBα) is shown. The level of mRNA was determined by RT-PCR and expressed relative to the level observed in LPS-stimulated cells (i.e. without compounds).

IL-1alpha = test: as above; format: cell-based, murine; conditions: at 12.5 μmol/L, 4 hours; relative to LPS-stimulated cells (100%)
Source text: as §2

TNF-alpha = test: as above; format: cell-based, murine; conditions: at 12.5 μmol/L, 4 hours; relative to LPS-stimulated cells (100%)
Source text: as §2

I-κBalpha = test: as above; format: cell-based, murine; conditions: at 12.5 μmol/L, 4 hours; relative to LPS-stimulated cells (100%)
Source text: as §2

Aggrecan = test: Gene expression in normal human chondrocytes, RT-PCR; format: cell-based; conditions: 4 hrs
Procedure: as §1

ADAMTS-5 = test: as above; format: cell-based; conditions: stim. 4 hrs; 500 mg/L; % of IL1β-treated cells
Procedure: [Worded in the source for another target; this target is reported under the same test.] as §1

MMP-2 = test: as above; format: cell-based; conditions: 4 d; 500 mg/L; % of IL1β-treated cells
MMP-9 = test: as above; format: cell-based; conditions: stim. 4 hrs; 50 μmol/L
ADAMTS-4 = test: as above; format: cell-based; conditions: unstim. 4 d; 50 μmol/L
Collagen II = test: as above; format: cell-based; conditions: 4 hrs; 50 μmol/L
[3] = LPS 1 μg/ml, 24 hours, RAW264.7, read-out: IC50 Observed, inflammatory mediator NO

| Compound | Expression level (%) Collagen I (Collagen I) [%] | Expression level (%) SOX-6 (SOX-6) [%] | Expression level (%) IL-RI (Receptor for Il-1) (IL-RI Receptor for Il-1) [%] | pIC50 (Inflammatory mediator NO; [3]) | Expression level (%) TIMP-1 (TIMP-1) [%] | Expression level (%) SOX-9 (SOX-9) [%] | cartilage build-up effect (in words) [2] | Expression level (%) IL-10 (IL-10) [%] | Expression level (%) IL-1alpha (IL-1alpha) [%] | Expression level (%) TNF-alpha (TNF-alpha) [%] | Expression level (%) I-κBalpha (I-κBalpha) [%] | anti-inflammatory activity (in words) (Inflammatory mediator NO; single substance) | other results |
| --- | --- | --- | --- | --- | --- | --- | --- | --- | --- | --- | --- | --- | --- |
| C=CCc1ccc(O)c(-c2cc(CC=C)ccc2O)c1 [MA, 5,5′-Diallyl-2,2′-biphenyldiol] | 78 | 94 | 98 | 5.05 | 96 | 110 | to lesser extent | 136 | 70 | 96 | 99 |  | pIC50 ([1]; RAW264.7, 24 h): 5.29 |
| Chondroitin sulfate |  |  |  |  |  |  |  |  |  |  |  | marginal anti-inflammatory | IC50 Nitric Oxide (Inflammatory mediator NO; single substance, LPS-stimulated RAW264.7): >50 µg/mL; level of gene expression Aggrecan (Aggrecan; stim., 500 mg/L): 62%; level of gene expression TIMP-1 (TIMP-1; unstim., 4 d, 500 mg/L): 106%; level of gene expression ADAMTS-5 (ADAMTS-5): 107%; level of gene expression SOX-9 (SOX-9; 500 mg/L, % of unstimulated cells): 147%; level of gene expression MMP-2 (MMP-2): 93% |
| N[C@H]1C(O)O[C@H](CO)[C@@H](O)[C@@H]1O.O=S(=O)(O)O (stereo partly drawn) [Glucosamine sulfate, glucosamine sulfate] |  |  |  |  |  |  |  |  |  |  |  | marginal anti-inflammatory | level of gene expression Collagen 1 (Collagen I; 4 hrs, 50 μmol/L): 121%; pIC50 (Inflammatory mediator NO; single substance, LPS-stimulated RAW264.7, read-out: IC50 Nitric Oxide): < 4.00; level of gene expression MMP-9 (MMP-9): 114%; level of gene expression Aggrecan (Aggrecan; 50 μmol/L): 81%; level of gene expression TIMP-1 (TIMP-1; 4 hrs, 50 μmol/L): 110%; level of gene expression ADAMTS-4 (ADAMTS-4): 101%; level of gene expression Collagen II (Collagen II): 154% |
| C=CCc1ccc(O)c(-c2ccc(O)c(CC=C)c2)c1 [HO, 3′,5-Diallyl-2,4′-biphenyldiol] | 100 | 130 | 89 | 5.34 | 106 | 124 | favors cartilage build-up | 94 | 68 | 81 | 96 |  | pIC50 ([1]; LPS 1 μg/ml, 24 hours, RAW264.7): 5.69 |
